According to paper PMC7377239, “Cardiovascular Effects of Polychlorinated Biphenyls and Their Major Metabolites” (Environmental Health Perspectives, 2020):
Read-outs that look alike come from different tables or passages of the source.

How the values were obtained:
[1] = test system: iCell cardiomyocytes (human iPSC-derived cardiomyocytes); assay: High-content imaging of cytotoxicity and mitochondrial integrity in iPSC-CMs; format: cell-based; settings: Homo sapiens, Cardiomyocyte; for viability at 0.01 µM / activity at 0.01 µM / viability at 0.1 µM / activity at 0.1 µM / viability at 1 µM / activity at 1 µM / viability at 10 µM / activity at 10 µM / viability at 100 µM / activity at 100 µM: 0.00 µM = 100.00; for viability at 0.1 µM / activity at 0.1 µM: 0.10 µM
Procedure, shortened: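 Human iPSC-derived cardiomyocytes were seeded on gelatin-coated 384-well plates at 5,000 cells per well and maintained for 12 d. Test chemicals were added as 10μL of 5× solutions to final concentrations of 0.01 to 100μM. Cells were stained with Hoechst 33342 and MitoTracker™ Orange, fixed in formaldehyde, and imaged by confocal high-content microscopy at 10× magnification.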

HUVECs = assay: High-content imaging cytotoxicity in HUVECs, 24 h; format: cell-based, human; settings: Homo sapiens, HUVEC, 24 h, HUVECs; for viability at 0.01 µM / activity at 0.01 µM: concentration 0.01 µM; for viability at 0.01 µM / activity at 0.01 µM / viability at 0.1 µM / activity at 0.1 µM / viability at 1 µM / activity at 1 µM / viability at 10 µM / activity at 10 µM / viability at 100 µM / activity at 100 µM: 0.00 µM = 100.00; for viability at 0.1 µM / activity at 0.1 µM: concentration 0.10 µM; for viability at 1 µM / activity at 1 µM: concentration 1.00 µM; for viability at 10 µM / activity at 10 µM: concentration 10.00 µM; for viability at 100 µM / activity at 100 µM: concentration 100.00 µM; for minimal effective concentration: MAX 100.00
Procedure, shortened: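 HUVECs (passages 1–5) grown to monolayer over 3–5 d, then exposed 24 h at 37°C, 5% CO2; stained with Hoechst 33342, MitoTracker Orange and calcein AM and imaged at 10×. Readouts normalized to 0.5% DMSO vehicle, four-parameter logistic fit; POD at one-SD cutoff, 100μM assigned when no response.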

[2] = 1.5 h, 90min, read-out: cm.cam.90min
[3] = 1.5 h, 90min, read-out: cm.mii.90min
[4] = 1.5 h, 90min, read-out: cm.mito.90min
[5] = 1.5 h, 90min, read-out: cm.tc.90min
[6] = 24 h, 24hrs, read-out: cm.cam.24hrs
[7] = 24 h, 24hrs, read-out: cm.mii.24hrs
[8] = 24 h, 24hrs, read-out: cm.mito.24hrs
[9] = 24 h, 24hrs, read-out: cm.tc.24hrs
[10] = 24 hr, read-out: huvec.cyto.24hr
[11] = 24 hr, read-out: huvec.mito.24hr
[12] = 24 hr, read-out: huvec.mitoint.24hr
[13] = 24 hr, read-out: huvec.nma.24hr
[14] = 24 hrs, read-out: huvec.tc.24hrs

Clc1ccc(-c2cc(Cl)c(Cl)c(Cl)c2)cc1Cl [PCB126]
viability at 0.01 µM [1, 2]: 107% | activity at 0.01 µM [1, 3]: 97.6% | activity at 0.01 µM [1, 4]: 108% | viability at 0.01 µM [1, 5]: 107% | viability at 0.1 µM [1, 2]: 101% | activity at 0.1 µM [1, 3]: 106% | activity at 0.1 µM [1, 4]: 101% | viability at 0.1 µM [1, 5]: 101% | viability at 1 µM [1, 2]: 97.4% | activity at 1 µM [1, 3]: 111% | activity at 1 µM [1, 4]: 97.2% | viability at 1 µM [1, 5]: 97.2% | viability at 10 µM [1, 2]: 97.1% | activity at 10 µM [1, 3]: 103% | activity at 10 µM [1, 4]: 96.8% | viability at 10 µM [1, 5]: 96.8% | viability at 100 µM [1, 2]: 97.2% | activity at 100 µM [1, 3]: 111% | activity at 100 µM [1, 4]: 96.7% | viability at 100 µM [1, 5]: 96.7% | minimal effective concentration ([1]; 1.5 h, 90min, read-out: cm.cam.90min POD): 100 µM | minimal effective concentration ([1]; 1.5 h, 90min, read-out: cm.mii.90min POD): 100 µM | minimal effective concentration ([1]; 1.5 h, 90min, read-out: cm.mito.90min POD): 100 µM | minimal effective concentration ([1]; 1.5 h, 90min, read-out: cm.tc.90min POD): 100 µM | viability at 0.01 µM [1, 6]: 94.2% | activity at 0.01 µM [1, 7]: 109% | activity at 0.01 µM [1, 8]: 94% | viability at 0.01 µM [1, 9]: 93.7% | viability at 0.1 µM [1, 6]: 97.6% | activity at 0.1 µM [1, 7]: 80.7% | activity at 0.1 µM [1, 8]: 96.1% | viability at 0.1 µM [1, 9]: 98% | viability at 1 µM [1, 6]: 101% | activity at 1 µM [1, 7]: 103% | activity at 1 µM [1, 8]: 103% | viability at 1 µM [1, 9]: 101% | viability at 10 µM [1, 6]: 90.4% | activity at 10 µM [1, 7]: 74% | activity at 10 µM [1, 8]: 88.5% | viability at 10 µM [1, 9]: 90.2% | viability at 100 µM [1, 6]: 46.6% | activity at 100 µM [1, 7]: 101% | activity at 100 µM [1, 8]: 35.6% | viability at 100 µM [1, 9]: 48.4% | minimal effective concentration ([1]; 24 h, read-out: cm.cam.24hrs POD): 7.03 µM | minimal effective concentration ([1]; 24 h, read-out: cm.mii.24hrs POD): 100 µM | minimal effective concentration ([1]; 24 h, read-out: cm.mito.24hrs POD): 7.54 µM | minimal effective concentration ([1]; 24 h, read-out: cm.tc.24hrs POD): 6.48 µM | viability at 0.01 µM (HUVECs; [10]): 86.8% | activity at 0.01 µM (HUVECs; [11]): 85.6% | activity at 0.01 µM (HUVECs; [12]): 89% | activity at 0.01 µM (HUVECs; [13]): 94.2% | viability at 0.1 µM (HUVECs; [10]): 93.4% | activity at 0.1 µM (HUVECs; [11]): 92% | activity at 0.1 µM (HUVECs; [12]): 79.3% | activity at 0.1 µM (HUVECs; [13]): 93.5% | viability at 1 µM (HUVECs; [10]): 93.8% | activity at 1 µM (HUVECs; [11]): 92.5% | activity at 1 µM (HUVECs; [12]): 83.6% | activity at 1 µM (HUVECs; [13]): 95.2% | viability at 10 µM (HUVECs; [10]): 91.2% | activity at 10 µM (HUVECs; [11]): 89.7% | activity at 10 µM (HUVECs; [12]): 74.2% | activity at 10 µM (HUVECs; [13]): 93% | viability at 100 µM (HUVECs; [10]): 57.1% | activity at 100 µM (HUVECs; [11]): 55% | activity at 100 µM (HUVECs; [12]): 96.7% | activity at 100 µM (HUVECs; [13]): 84.5% | minimal effective concentration (HUVECs; 24 hr, read-out: huvec.cyto.24hr POD): 5.33 µM | minimal effective concentration (HUVECs; 24 hr, read-out: huvec.mito.24hr POD): 100 µM | minimal effective concentration (HUVECs; 24 hr, read-out: huvec.mitoint.24hr POD): 100 µM | minimal effective concentration (HUVECs; 24 hr, read-out: huvec.nma.24hr POD): 100 µM | viability at 0.01 µM (HUVECs; [14]): 86.9% | viability at 0.1 µM (HUVECs; [14]): 93.4% | viability at 1 µM (HUVECs; [14]): 93.8% | viability at 10 µM (HUVECs; [14]): 91.4% | viability at 100 µM (HUVECs; [14]): 57.3% | minimal effective concentration (HUVECs; 24 hrs, read-out: huvec.tc.24hrs POD): 5.33 µM
